The source of these data is article PMC11451537, “P2X7 receptors exhibit at least three modes of allosteric antagonism” (Science Advances, 2024).

Positions count from the first letter of the chain named.

The target of one assay is T1, rP2X7-F88A (Rattus norvegicus, UniProt Q64663, F88A).
T1 sequence (Q64663 1-595 F88A): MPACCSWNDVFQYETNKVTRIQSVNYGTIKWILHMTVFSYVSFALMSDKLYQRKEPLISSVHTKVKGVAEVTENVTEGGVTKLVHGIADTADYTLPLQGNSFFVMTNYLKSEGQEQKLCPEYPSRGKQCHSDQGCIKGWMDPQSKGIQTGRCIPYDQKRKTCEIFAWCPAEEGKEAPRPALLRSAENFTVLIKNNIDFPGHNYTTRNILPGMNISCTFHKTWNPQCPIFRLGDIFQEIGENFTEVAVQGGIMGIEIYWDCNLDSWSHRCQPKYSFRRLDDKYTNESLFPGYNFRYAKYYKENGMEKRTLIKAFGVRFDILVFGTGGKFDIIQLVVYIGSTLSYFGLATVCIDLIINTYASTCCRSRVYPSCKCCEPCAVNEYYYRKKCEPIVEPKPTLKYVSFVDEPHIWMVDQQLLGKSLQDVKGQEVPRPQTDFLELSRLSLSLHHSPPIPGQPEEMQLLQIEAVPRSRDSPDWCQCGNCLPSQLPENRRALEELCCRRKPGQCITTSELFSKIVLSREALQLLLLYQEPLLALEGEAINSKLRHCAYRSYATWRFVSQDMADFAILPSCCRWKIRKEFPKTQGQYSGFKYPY
Nature of the assay: TEVC inhibition dose-response, rP2X7-F88A mutant. Format: cell-based. As to conditions: read-out: IC50 (inhibitory potency), F88A. The text has this: (§1) Structural determination of the full-length, wild-type rP2X7 was completed using a construct previously described containing no truncations or mutations ([16]). Furthermore, the rP2X7-WT construct used for electrophysiology experiments is unmodified full-length, wild-type rP2X7 with no green fluorescent protein (GFP), protease sites, or affinity tags present. The hP2X1-WT, hP2X2-WT, hP2X3-WT, hP2X4-WT, and hP2X7-WT constructs used for electrophysiology are similarly unmodified full-length, wild-type receptor constructs with no GFP, protease sites, or affinity tags present. Mutations to the rP2X7-WT construct used for electrophysiology experiments were made directly in the pcDNA3.1x plasmid. These constructs included the following: rP2X7-K297A, rP2X7-K297G, rP2X7-K297M, rP2X7-K297Q, rP2X7-K297V, rP2X7-Y298A, rP2X7-Y298G, rP2X7-Y298V, rP2X7-Y298L, rP2X7-R316A, rP2X7-R316G, rP2X7-R316Q, rP2X7-R316H, rP2X7-F88A, rP2X7-F103A, and rP2X7-Y295A.
(§2) To evaluate the inhibitory response of an antagonist for a dilution series, an initial excitatory signal was evoked at a subtype-specific concentration of ATP. Next, the antagonist was applied at a test concentration for 60 s and then coapplied at the same test concentration of the antagonist with the identical subtype-specific concentration of ATP. The antagonized signal was then normalized against the preceding excitatory signal evoked by ATP for each individual oocyte tested. The pre- and post-antagonist signals were evoked by 10 μM ATP for hP2X1, 10 μM ATP for hP2X2, 1 μM ATP for hP2X3, 50 μM ATP for hP2X4, and 100 μM ATP for P2X7. For the K297V mutation in rP2X7, pre- and post-antagonist signals were evoked by 300 μM ATP. Each dataset was then fit to a nonlinear regression named “[inhibitor] vs. response – Variable slope (four parameters)” in GraphPad Prism 9 to produce a sigmoidal curve and afford an IC50 value. Each singular condition was used to generate an average which is reported plus or minus its SD between three discrete trials.

For the next assay, the target named is T2, rP2X7-F103A (Rattus norvegicus, UniProt Q64663, F103A).
T2 sequence (Q64663 1-595 F103A): T1 sequence (Q64663 1-595 F88A) with A88F, F103A
Nature of the assay: TEVC inhibition dose-response, rP2X7-F103A mutant. The settings on record: for IC50: reduced expression and variable response to ATP, read-out: IC50 (inhibitory potency), F103A. The class given is cell-based.
Text: as §1, §2

As for `Clc1cccc(-c2nnnn2Cc2cccnc2)c1Cl` [A438079], the IC50 at rP2X7-F88A is 14 ± 1 µM; at rP2X7-F103A, more than 10 µM.
Take `Clc1cccc(-n2nnnc2NCc2ccccc2Oc2ccccn2)c1Cl` [A839977]: the IC50 on rP2X7-F88A was 1.9 ± 0.2 µM; on rP2X7-F103A, more than 1 µM.
On the same counts, the results for `O=C(NCC12CC3CC(CC(C3)C1)C2)c1cc(CCCNCCCO)ccc1Cl` [AZD9056] are 0.13 ± 0.01 µM and more than 10 µM.
On the same counts, the results for `CN1C(=O)CC[C@H]1C(=O)NCc1cccc(C(F)(F)F)c1Cl` [GSK1482160] are 13 ± 3 µM and more than 20 µM.
Consider `O=C(NCC1(N2CCN(c3ccccc3)CC2)CCOCC1)c1cccnc1Sc1ccccc1` [JNJ47965567], for which the IC50 on rP2X7-F88A worked out at 0.8 ± 0.1 µM. For the same compound, the “inhibition at 625 nM, F103A” value against rP2X7-F103A (625 nM antagonist) was 50-80%.
With `O=S(=O)(O)c1ccc(N=C2C=CC(=C(c3ccc(Nc4ccc(S(=O)(=O)O)cc4)cc3)c3ccc(Nc4ccc(S(=O)(=O)O)cc4)cc3)C=C2)cc1` [methyl blue], the IC50 at rP2X7-F88A was found to be 5 ± 2 µM. In addition, the inhibition at 30 µM against rP2X7-F103A (30 µM antagonist) fell in the range of 50 to 75%.
